Tested on: rat small-intestinal brush border membrane vesicles
Assay: Inhibitory effect on 33PO4 uptake into rat small-intestinal brush border membrane vesicles (rapid filtration method)
Type: biochemical, Wistar female rat
Details: 1 µM test compound; 33PO4 uptake into rat small-intestinal BBMVs, 60 seconds
Outline: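 Uptake was terminated by ice-cold 110 mM NaCl, 1 mM KH2PO4, 10 mM HEPES (pH 7.5) buffer and immediate suction filtration, then washing. Using rat small-intestinal BBMVs, retained 33PO4 was quantified by liquid scintillation counting as transport activity.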

## Cc1ncc(-c2cc(C(F)(F)F)ccc2NC(=O)C2=C(O)[C@@]3(C)CCCN3N(Cc3cccc(F)c3F)C2=O)cc1C#N [Example 109, (4aR)-N-[2-(5-Cyano-6-methylpyridin-3-yl)-4-(trifluoromethyl)phenyl]-1-[(2,3-difluorophenyl)methyl]-4-hydroxy-4a-methyl-2-oxo-6,7-dihydro-5H-pyrrolo[1,2-b]pyridazine-3-carboxamide]
  Rate of uptake inhibition (%) (1 µM): 52%

## CN1N(Cc2ccc(OCCN3CCOCC3(C)C)c(F)c2F)C(=O)C(C(=O)Nc2ccc(C(F)(F)F)cc2-c2cc(C(F)(F)F)ncn2)=C(O)C12CCC2 [Example 341]
  Rate of uptake inhibition (%) (1 µM): 64%

## CN1N(Cc2ccc(OCCOCCOCCOCCNC(=O)[C@@H](O)[C@H](O)[C@@H](O)[C@@H](O)CO)c(F)c2F)C(=O)C(C(=O)Nc2ccc(C(F)(F)F)cc2-c2cc(C(F)(F)F)ncn2)=C(O)C12CCCC2 [Example 428, 7-[[2,3-Difluoro-4-[2-[2-[2-[2-[[(2S,3R,4S,5S)-2,3,4,5,6-pentahydroxyhexanoyl]amino]ethoxy]ethoxy]ethoxy]ethoxy]phenyl]methyl]-10-hydroxy-6-methyl-8-oxo-N-[4-(trifluoromethyl)-2-[6-(trifluoromethyl)pyrimidin-4-yl]phenyl]-6,7-diazaspiro[4.5]dec-9-ene-9-carboxamide]
  Rate of uptake inhibition (%) (1 µM): 14%

## COc1cccc(-c2cc(C(F)(F)F)ccc2NC(=O)C2=C(O)[C@@]3(C)CCCN3N(Cc3ccc(C#CCOCCCO)c(F)c3F)C2=O)c1OC [Example 127]
  Rate of uptake inhibition (%) (1 µM): 95%

## C[C@]12CCCN1N(Cc1cc(F)cc(F)c1)C(=O)C(C(=O)Nc1cc(F)c(Br)c(F)c1)=C2O [Example 190]
  Rate of uptake inhibition (%) (1 µM): 84%

## COCCN1CCN(CCOc2ccc(CN3C(=O)C(C(=O)Nc4ccc(C(F)(F)F)cc4-c4cc(C(F)(F)F)ncn4)=C(O)C4(CCCC4)N3C)c(F)c2F)CC1 [Example 377]
  Rate of uptake inhibition (%) (1 µM): 29%

## C[C@]12CCCN1N(Cc1c(F)cc(C#CCN3CCOCC3)cc1F)C(=O)C(C(=O)Nc1ccc(C(F)(F)F)cc1-c1ccc(C(F)(F)F)nc1)=C2O [Example 132]
  Rate of uptake inhibition (%) (1 µM): 71%

## COc1ncc(-c2cc(C(F)(F)F)ccc2NC(=O)C2=C(O)[C@@]3(C)CCCN3N(Cc3cccc(F)c3F)C2=O)c(OC)n1 [Example 72]
  Rate of uptake inhibition (%) (1 µM): 92%

## C[C@]12CCCN1N(Cc1ccc(F)c(F)c1)C(=O)C(C(=O)Nc1ccc(C(F)(F)F)cc1-c1cc(C(F)(F)F)ncn1)=C2O [Example 214]
  Rate of uptake inhibition (%) (1 µM): 91%

## CN1N(Cc2ccc(OCCN3C4CCC3COC4)c(F)c2F)C(=O)C(C(=O)Nc2ccc(C(F)(F)F)cc2-c2cc(C(F)(F)F)ncn2)=C(O)C12CCCC2 [Example 367]
  Rate of uptake inhibition (%) (1 µM): 43%

## C[C@]12CCCN1N(Cc1ccc(OCCCCOC[C@H](O)CO)c(F)c1F)C(=O)C(C(=O)Nc1ccc(Cl)cc1-c1ccc(C(F)(F)F)nc1)=C2O [Example 121, (4aR)-N-[4-Chloro-2-[6-(trifluoromethyl)pyridin-3-yl]phenyl]-1-[[4-[4-[(2R)-2,3-dihydroxypropoxy]butoxy]-2,3-difluorophenyl]methy]-4-hydroxy-4a-methyl-2-oxo-6,7-dihydro-5H-pyrrolo[1,2-b]pyridazine-3-carboxamide]
  Rate of uptake inhibition (%) (1 µM): 72%

## C[C@]12CCCN1N(Cc1ccc(F)cc1F)C(=O)C(C(=O)Nc1ccc(C(F)(F)F)cc1-c1ccc(C(F)(F)F)nc1)=C2O [Example 173]
  Rate of uptake inhibition (%) (1 µM): 73%

## Cc1cccc(CN2C(=O)C(C(=O)Nc3ccc(C(F)(F)F)cc3-c3ccc(C(F)(F)F)nc3)=C(O)[C@@]3(C)CCCN23)c1F [Example 205]
  Rate of uptake inhibition (%) (1 µM): 86%

## C[C@@]12CCCN1N(Cc1ccc(OCCN3CCOCC3)c(F)c1F)C(=O)C(C(=O)Nc1ccc(C(F)(F)F)cc1-c1cc(C(F)(F)F)ncn1)=C2O.Cl [Example 108]
  Rate of uptake inhibition (%) (1 µM): 54%

## CN1N(Cc2ccc(OCCCOC[C@H](O)CO)c(F)c2F)C(=O)C(C(=O)Nc2ccc(C(F)(F)F)cc2-c2ccc(C(F)(F)F)nc2)=C(O)C12CCCC2 [Example 386]
  Rate of uptake inhibition (%) (1 µM): 36%

## CN1[C@@H](C(C)(C)C)C(O)=C(C(=O)Nc2ccc(Cl)cc2-c2cc(C(F)(F)F)ncn2)C(=O)N1Cc1cccc(F)c1F [Example 237]
  Rate of uptake inhibition (%) (1 µM): 51%

## C[C@]12CCCN1N(Cc1ccc(OCCN3CCOCC3)c(F)c1F)C(=O)C(C(=O)Nc1ccc(C(F)(F)F)nc1-c1cncc(C(F)(F)F)c1)=C2O [Example 106]
  Rate of uptake inhibition (%) (1 µM): 79%

## C[C@]12CCCN1N(Cc1cccc(C#N)c1)C(=O)C(C(=O)Nc1cc(F)c(Br)c(F)c1)=C2O [Example 220]
  Rate of uptake inhibition (%) (1 µM): 96%

## CN1N(Cc2ccc(OCCCCOC[C@H](O)CO)c(F)c2F)C(=O)C(C(=O)Nc2ccc(C(F)(F)F)cc2-c2cc(C(F)(F)F)ncn2)=C(O)C12CCC2 [Example 390]
  Rate of uptake inhibition (%) (1 µM): 58%

## CN(CCOc1ccc(CN2C(=O)C(C(=O)Nc3ccc(C(F)(F)F)cc3-c3cc(C(F)(F)F)ncn3)=C(O)C3(CCCC3)N2C)c(F)c1F)C1COC1 [Example 412, 7-(2,3-Difluoro-4-(2-(methyl(oxetan-3-yl)amino)ethoxy)benzyl)-10-hydroxy-6-methyl-8-oxo-N-(4-(trifluoromethyl)-2-(6-(trifluoromethyl)pyrimidin-4-yl)phenyl)-6,7-diazaspiro[4.5]dec-9-ene-9-carboxamide]
  Rate of uptake inhibition (%) (1 µM): 52%

## Cc1cc(NC(=O)C2=C(O)[C@@H]3CCCN3N(Cc3cccc(F)c3)C2=O)c(C(F)(F)F)o1 [Example 1, (4aS)-1-[(3-Fluorophenyl)methyl]-4-hydroxy-N-[5-methyl-2-(trifluoromethyl)furan-3-yl]-2-oxo-4a,5,6,7-tetrahydropyrrolo[1,2-b]pyridazine-3-carboxamide]
  Rate of uptake inhibition (%) (1 µM): 28%

## CCC1(CC)C(O)=C(C(=O)Nc2ccc(C(F)(F)F)cc2-c2cc(C(F)(F)F)ncn2)C(=O)N(Cc2ccc(OCCN3CCOCC3)c(F)c2F)N1C [Example 291]
  Rate of uptake inhibition (%) (1 µM): 47%

## COCCOc1cc(NC(=O)C2=C(O)[C@@]3(C)CCCN3N(Cc3cccc(F)c3F)C2=O)c(-c2cccc(OC)c2OC)cc1C(F)(F)F [Example 92]
  Rate of uptake inhibition (%) (1 µM): 81%

## CN1N(Cc2ccc(OCCCC(=O)O)c(F)c2F)C(=O)C(C(=O)Nc2ccc(C(F)(F)F)cc2-c2cc(C(F)(F)F)ncn2)=C(O)C12CCCC2 [Example 332, 4-[2,3-Difluoro-4-[[10-hydroxy-6-methyl-8-oxo-9-[[4-(trifluoromethyl)-2-[6-(trifluoromethyl)pyrimidin-4-yl]phenyl]carbamoyl]-6,7-diazaspiro[4.5]dec-9-en-7-yl]methyl]phenoxy]butanoate]
  Rate of uptake inhibition (%) (1 µM): 3%

## COC1(C)CN(CCOc2ccc(CN3C(=O)C(C(=O)Nc4ccc(C(F)(F)F)cc4-c4cc(C(F)(F)F)ncn4)=C(O)C4(CCC4)N3C)c(F)c2F)C1 [Example 356]
  Rate of uptake inhibition (%) (1 µM): 58%

## CC(C)[C@H]1C(O)=C(C(=O)Nc2ccc(C(F)(F)F)cc2-c2ccc(C(F)(F)F)nc2)C(=O)N(Cc2ccc(OCCN3CCOCC3)c(F)c2F)N1C [Example 280]
  Rate of uptake inhibition (%) (1 µM): 50%

## CN1N(Cc2ccc(OCCN3CCOCC3)c(F)c2F)C(=O)C(C(=O)Nc2ccc(Cl)cc2-c2cc(C(F)(F)F)ncn2)=C(O)C12CCCC2 [Example 286]
  Rate of uptake inhibition (%) (1 µM): 50%

## CN1N(Cc2ccc(OCCN3CCN(CCOCCO)CC3)c(F)c2F)C(=O)C(C(=O)Nc2ccc(C(F)(F)F)cc2-c2cc(C(F)(F)F)ncn2)=C(O)C12CCC2 [Example 361]
  Rate of uptake inhibition (%) (1 µM): 20%

## COc1cccc(CN2C(=O)C(C(=O)Nc3ccc(C(F)(F)F)cc3-c3ccc(C(F)(F)F)nc3)=C(O)[C@@]3(C)CCCN23)c1OC [Example 175]
  Rate of uptake inhibition (%) (1 µM): 85%

## C[C@]12CCCN1N(Cc1ccc(F)cc1F)C(=O)C(C(=O)Nc1cc(F)c(Br)c(F)c1)=C2O [Example 192]
  Rate of uptake inhibition (%) (1 µM): 88%

## CN1N(Cc2ccc(C#CCN3CCOCC3)c(F)c2F)C(=O)C(C(=O)Nc2ccc(Cl)cc2-c2cc(C(F)(F)F)ncn2)=C(O)C1(C)C [Example 316, N-[4-Chloro-2-[6-(trifluoromethyl)pyrimidin-4-yl]phenyl]-2-[[2,3-difluoro-4-(3-morpholin-4-ylprop-1-ynil)phenyl]methyl]-5-hydroxy-1,6,6-trimethyl-3-oxopyridazine-4-carboxamide]
  Rate of uptake inhibition (%) (1 µM): 64%

## Cc1ccccc1CN1C(=O)C(C(=O)Nc2ccc(C(F)(F)F)cc2-c2cc(C(F)(F)F)ncn2)=C(O)[C@@]2(C)CCCN12 [Example 185]
  Rate of uptake inhibition (%) (1 µM): 83%

## CCN(CCN(C)CCOC)c1ccc(CN2C(=O)C(C(=O)Nc3ccc(C(F)(F)F)cc3-c3cc(C(F)(F)F)ncn3)=C(O)C3(CCCC3)N2C)c(F)c1F [Example 443]
  Rate of uptake inhibition (%) (1 µM): 28%

## C[C@]12CCCN1N(Cc1cccc(OC(F)F)c1)C(=O)C(C(=O)Nc1ccc(C(F)(F)F)cc1-c1ccc(C(F)(F)F)nc1)=C2O [Example 167]
  Rate of uptake inhibition (%) (1 µM): 73%

## CN1N(Cc2ccc(OCCN3CCOCC3)c(F)c2F)C(=O)C(C(=O)Nc2ccc(Br)c(C(F)(F)F)n2)=C(O)C12CCCCC2 [Example 298]
  Rate of uptake inhibition (%) (1 µM): 10%

## C[C@]12CCCN1N(Cc1ccc(CCCCCCC(=O)O)c(F)c1F)C(=O)C(C(=O)Nc1ccc(Cl)cc1-c1ccc(C(F)(F)F)nc1)=C2O [Example 116, 7-[4-[[(4aR)-3-[[4-Chloro-2-[6-(trifluoromethyl)pyridin-3-yl]phenyl]carbamoyl]-4-hydroxy-4a-methyl-2-oxo-6,7-dihydro-5H-pyrrolo[1,2-b]pyridazin-1-yl]methyl]-2,3-difluorophenyl]heptanoate]
  Rate of uptake inhibition (%) (1 µM): 72%

## CCC1(CC)C(O)=C(C(=O)Nc2ccc(Cl)cc2-c2ccc(C(F)(F)F)nc2)C(=O)N(Cc2ccc(OCCN3CCOCC3)c(F)c2F)N1C [Example 294]
  Rate of uptake inhibition (%) (1 µM): 40%

## CN1N(Cc2ccc(OCCN3CCOCC3)c(F)c2F)C(=O)C(C(=O)Nc2ccc(Cl)cc2-c2cc(C(F)(F)F)ncn2)=C(O)C12CCCCC2 [Example 297]
  Rate of uptake inhibition (%) (1 µM): 36%
